This is an account of results in ChEMBL document CHEMBL5625164, “Design, synthesis, and evaluation of new anti-inflammatory natural products amide derivatives endowed with anti-blood cancer activity towards development of potential multifunctional agents against hematological cancers” (Eur J Med Chem, 2023).

The structures appear in SMILES notation.

A word on the inhibition: it is the share of the control response that was lost under treatment. What is called IC50 is the concentration at which inhibition is half-maximal.

Series [1] has as its system BV-2. The series can be described thus: Anti-inflammatory activity against mouse BV-2 cells assessed as inhibition of LPS-induced TNFalpha production pretreated for 2 hrs followed stimulated with LPS for 22 hrs at 10 uM relative to control. It counts as functional. The conditions noted are these: time 24 hrs.
Series [2] has as its system BV-2. The series can be described thus: Anti-inflammatory activity against mouse BV-2 cells assessed as inhibition of LPS-induced PGE2 production pretreated for 2 hrs followed stimulated with LPS for 22 hrs at 10 uM relative to control. It is filed as functional. The conditions noted are these: time 24 hrs.
In series [3] the test system is BV-2. Description: Anti-inflammatory activity against mouse BV-2 cells assessed as inhibition of LPS-induced NO production pretreated for 2 hrs followed stimulated with LPS for 22 hrs by Griess reaction assay. It is filed as functional, cell-based.
Series [4] relates to BV-2. The series can be described thus: Anti-inflammatory activity against mouse BV-2 cells assessed as inhibition of LPS-induced TNFalpha production pretreated for 2 hrs followed stimulated with LPS for 22 hrs. It is filed as functional, cell-based.
The subject of series [5] is CCRF-CEM. The series can be described thus: Anticancer activity against human CCRF-CEM cells assessed as growth inhibition at 10 uM measured after 48 hrs by SRB assay relative to control. It is filed as functional. To be noted: read-out: GI. A general note: Sulforhodamine B stains cellular protein and so reports cell mass.
Series [6] in a line: Cytotoxicity against mouse RAW264.7 cells assessed as macrophage viability at 10 uM relative to control. It counts as toxicity, cell-based. The conditions noted are these: read-out: Activity.
Series [7] has as its system K562. The series can be described thus: Anticancer activity against human K562 cells assessed as growth inhibition at 10 uM measured after 48 hrs by SRB assay relative to control. The conditions noted are these: read-out: GI. It is filed as functional.
Series [8] concerns MOLT-4. Description: Anticancer activity against human MOLT-4 cells assessed as growth inhibition at 10 uM measured after 48 hrs by SRB assay relative to control. It is filed as functional. The conditions noted are these: read-out: GI.
Series [9] has as its system SR. The series can be described thus: Anticancer activity against human SR cells assessed as growth inhibition at 10 uM measured after 48 hrs by SRB assay relative to control. It is filed as functional. The conditions noted are these: read-out: GI.
Series [10] relates to RPMI-8226. Description: Anticancer activity against human RPMI-8226 cells assessed as growth inhibition at 10 uM measured after 48 hrs by SRB assay relative to control. It counts as functional. The conditions noted are these: read-out: GI.
For series [11], the system named is BV-2. The series can be described thus: Anti-inflammatory activity against mouse BV-2 cells assessed as inhibition of LPS-induced NO production at 10 uM pretreated for 2 hrs followed stimulated with LPS for 22 hrs by Griess reaction assay relative to control. It counts as functional. To be noted: time 24 hrs. In general terms: Griess reagent forms a coloured azo dye with nitrite.

Series [12] deals with BV-2. Description: Anti-inflammatory activity against mouse BV-2 cells assessed as inhibition of LPS-induced PGE2 production pretreated for 2 hrs followed stimulated with LPS for 22 hrs. It counts as functional, cell-based.
The subject of series [13] is HL-60. The series can be described thus: Anticancer activity against human HL-60 cells assessed as growth inhibition at 10 uM measured after 48 hrs by SRB assay relative to control. It counts as functional. To be noted: read-out: GI.

As to `COc1cc2c(c(OC)c1OC)C(=O)CC(c1cccc(NC(=O)c3ccccc3Br)c1)O2` (racemic), the values for the inhibition at 10 µM in series [1], in series [2] and in series [11] were 62.4%, 39% and 41.4%, respectively. In addition, the results for the IC50 in series [3] and in series [4] were 13.3 µM and 7.3 µM, respectively. Also, the inhibition of growth at 10 µM in series [5] came to 26.9%; in series [7], 29.8%; in series [8] it was 30.4%; in series [9], 31.6%; in [10], 41.8%. For the same compound, in series [6], the viability at 10 µM was 101%.
For the compound `COc1cc2c(c(OC)c1OC)C(=O)CC(c1cccc(C(=O)Nc3ccccc3Br)c1)O2` (racemic), the viability at 10 µM in series [6] is 101%. Further, in series [11], the inhibition at 10 µM amounted to 9.4%.
In the case of `COc1cccc(C(=O)Nc2cccc(C3CC(=O)c4c(cc(OC)c(OC)c4OC)O3)c2)c1` (racemic), the viability at 10 µM in series [6] was found to be 98%. Further, in [11], the inhibition at 10 µM was 32.1%.
The like results for `COc1cc2c(c(OC)c1OC)C(=O)CC(c1cccc(C(=O)Nc3cccnc3)c1)O2` (racemic) were, in that order, 109% and 10.5%.
The like results for `COc1ccccc1C(=O)Nc1cccc(C2CC(=O)c3c(cc(OC)c(OC)c3OC)O2)c1` (racemic) were, in that order, 103% and 14.3%.
As to `COc1cc2c(c(OC)c1OC)C(=O)CC(c1cccc(C(=O)Nc3ccncc3)c1)O2` (racemic), in series [6], the viability at 10 µM amounted to 91.3%. Further, in [11], the inhibition at 10 µM stood at 16%.
Consider `COc1cc2c(c(OC)c1OC)C(=O)CC(c1cccc(NC(=O)c3ccc([N+](=O)[O-])cc3)c1)O2` (racemic), for which the inhibition at 10 µM was 54.6% in [1], 51.6% in [2] and 35.8% in [11]. Also, the results for the IC50 in series [3] and in series [12] were 19.8 µM and 9.8 µM, respectively. The Activity result in [4] (time 24.0 hrs) was “Dose-Dependent Effect”. The inhibition of growth at 10 µM is 75.6% in series [5]; 64.6% in series [7]; 84.2% in [8]; 73.8% in [9]; 66.6% in series [10]. Further, the viability at 10 µM in [6] stood at 104%.
`COc1ccccc1NC(=O)c1cccc(C2CC(=O)c3c(cc(OC)c(OC)c3OC)O2)c1` (racemic): the viability at 10 µM in series [6] is 103%. In addition, in series [11], the inhibition at 10 µM turned out to be 19.7%.
`COc1cc2c(c(OC)c1OC)C(=O)CC(c1cccc(NC(=O)c3ccc(C#N)cc3)c1)O2` (racemic): the viability at 10 µM in series [6] turned out to be 115%. Besides, the inhibition at 10 µM in series [11] is 26.8%.
Take `COc1cc2c(c(OC)c1OC)C(=O)CC(c1cccc(C(=O)Nc3cccc(Cl)c3)c1)O2` (racemic): in [6], the viability at 10 µM turned out to be 93.9%. Further, in series [11], the inhibition at 10 µM was found to be 24.6%.
As to `COc1cc2c(c(OC)c1OC)C(=O)CC(c1cccc(C(=O)Nc3cccc([N+](=O)[O-])c3)c1)O2` (racemic), the figures for the inhibition at 10 µM in [2] and in series [11] were 31.4% and 42.7%, respectively. Further, the IC50 in series [3] is 14.7 µM; in series [4], more than 20 µM; in series [12] it was 10.7 µM. For the same compound, the inhibition of growth at 10 µM in series [13] was 49.4%; in series [5], 89.7%; in series [7] it was 63.5%; in [8], 77.2%; in [9] it was 66.2%; in [10], 82.7%. In [6], the viability at 10 µM is 111%.
With `COc1cc2c(c(OC)c1OC)C(=O)CC(c1cccc(C(=O)Nc3ccccc3)c1)O2` (racemic), the viability at 10 µM in series [6] was found to be 110%. Further, the inhibition at 10 µM in series [11] amounted to 24.2%.
Turning to `COc1cc2c(c(OC)c1OC)C(=O)CC(c1cccc(NC(=O)c3cccc(Cl)c3)c1)O2` (racemic), in series [6], the viability at 10 µM is 100%. Besides, the inhibition at 10 µM in series [11] amounted to 32.3%.
Consider `COc1ccc(C(=O)Nc2cccc(C3CC(=O)c4c(cc(OC)c(OC)c4OC)O3)c2)cc1` (racemic), for which, in series [6], the viability at 10 µM was found to be 102%. Besides, in series [11], the inhibition at 10 µM is 15.2%.
Turning to `COc1cc2c(c(OC)c1OC)C(=O)CC(c1cccc(C(=O)Nc3cccc(Br)c3)c1)O2` (racemic), the inhibition at 10 µM in series [1] turned out to be 39.5%; in series [2] it was 19.8%; in [11], 46.3%. Further, the IC50 is 11.7 µM in [3], 15.5 µM in series [4] and 10.9 µM in series [12]. Moreover, the inhibition of growth at 10 µM was determined as 8.2% in series [13]; 55% in series [5]; 50.2% in [7]; 51.2% in [8]; 53.2% in series [10]. In addition, in series [6], the viability at 10 µM was determined as 97.9%.
Consider `COc1cc2c(c(OC)c1OC)C(=O)CC(c1cccc(NC(=O)c3ccccc3)c1)O2` (racemic), for which, in series [6], the viability at 10 µM turned out to be 97%. Also, the inhibition at 10 µM in series [11] worked out at 23.5%.
The like results for `COc1cc2c(c(OC)c1OC)C(=O)CC(c1cccc(NC(=O)c3cccc(Br)c3)c1)O2` (racemic) were, in that order, 105% and 14.2%.
The like results for `COc1cc2c(c(OC)c1OC)C(=O)CC(c1cccc(C(=O)Nc3cccc(F)c3)c1)O2` (racemic) were, in that order, 110% and 25.8%.
Take `COc1cccc(CNC(=O)c2cccc(C3CC(=O)c4c(cc(OC)c(OC)c4OC)O3)c2)c1` (racemic): the viability at 10 µM in series [6] was 107%. Besides, the inhibition at 10 µM in series [11] is 24.7%.
On to `COc1cc2c(c(OC)c1OC)C(=O)CC(c1cccc(C(=O)Nc3ccc(Br)cc3)c1)O2` (racemic), for which the inhibition at 10 µM stood at 24.9% in [1], 62.6% in series [2] and 41.2% in series [11]. Besides, the IC50 came to 13.1 µM in series [3], 16.8 µM in series [4] and 10.3 µM in [12]. Moreover, the inhibition of growth at 10 µM in series [13] is 86.3%; in [5], 90.7%; in [7], 93.8%; in series [8], 101%; in [9], 77.8%; in series [10], 85.4%. The viability at 10 µM in series [6] worked out at 113%.
Regarding `COc1cc2c(c(OC)c1OC)C(=O)CC(c1cccc(C(=O)Nc3ccc(C#N)cc3)c1)O2` (racemic), the viability at 10 µM in series [6] worked out at 122%. Moreover, the inhibition at 10 µM in series [11] was 21.2%.
On to `COc1cccc(NC(=O)c2cccc(C3CC(=O)c4c(cc(OC)c(OC)c4OC)O3)c2)c1` (racemic), for which, in series [6], the viability at 10 µM was 112%. For the same compound, in series [11], the inhibition at 10 µM is 21.9%.
On to `COc1ccc(NC(=O)c2cccc(C3CC(=O)c4c(cc(OC)c(OC)c4OC)O3)c2)cc1` (racemic), for which the viability at 10 µM in [6] was found to be 111%. In series [11], the inhibition at 10 µM was found to be 28.6%.
